Data from patent publication US9126060B2, “Cosmetic use of geranylgeranyl-2-propanol” (SEDERMA, priority 2010, dated 2015).

Legend:
fibroblasts (FHN) = experiment: Intracellular peroxide level (DCFH-DA probe) in fibroblasts after SIPS; format: cell-based, human; conditions: 3 ppm
Description: Principle: Fibroblasts at confluence contacted or not with the GGP for several days, are subjected to oxidative stress by hydrogen peroxide in the presence or absence of the GGP. This stress is intended to induce premature senescence in cells.
After this initial stress, the cells were detached from the support and returned to culture at low density until confluence. They are then contacted or not with the compound of the invention for 24 hours. At this stage, each set of cultures (with or without the tested compounds) is divided into 2 lots. A first batch (not stressed) is evaluated directly for its concentration of intracellular peroxides (using the probe DCFH-DA). Simultaneously, the other batch (stressed) undergoes a second stress by hydrogen peroxide (weaker than the first) just before being evaluated in the same way regarding the concentration of intracellular peroxides.
The amount of fluorescence measured with this probe is directly proportional to the amount of peroxides present in the cells.

human dermal fibroblasts [1] = experiment: ATP synthesized by fibroblasts in premature senescence after oxidizing stress (chemiluminescence); format: cell-based; conditions: for ATP: after hydrogen peroxide stress
Description: Principle: human dermal fibroblasts at confluence received the GGP for 24 h. After this phase, they were treated with hydrogen peroxide in the presence or absence of the GGP. This stress is intended to induce premature senescence (SIPS) in cells and thus a decrease in ATP synthesis. A few hours after this stress, cells were lysed and the amount of intracellular ATP was assessed by chemiluminescence. This amount of ATP was divided by the amount of intracellular proteins.

[2] = tested on: Normal human dermal fibroblasts; experiment: Mean telomere length of fibroblasts in natural senescence (real-time quantitative PCR); format: cell-based; conditions: 1.65 ppm
From the text: The applicant has performed the average length measurement of the telomeres of a culture by a rapid method using PCR (Polymerase Chain Reaction) real-time quantitative.
This method relies on the use of two oligonucleotide primers specific of the telomeric repeat sequence (TTAGGG) and thus capable of hybridizing themselves to each of the two complementary strands of telomeric DNA, and then able to be amplified during the PCR cycles proportionally to the average length of telomeres of the genomic DNA of a given culture. A fluorescent molecule, intercalated into DNA double strand, is used to quantify the phenomenon (hybridization+amplification) at the end of each cycle. The parameter for evaluating the significance of this phenomenon is the Ct, cycle number of hybridization amplification necessary to reach a given fluorescence threshold above background noise.
Each Ct will be converted into an average length of telomeres, with a reference range obtained with successive dilutions from a standard solution of a synthetic oligonucleotide of 84 bases, consisting of 14 repeats of the TTAGGG sequence, each of these dilutions (or point range) being subjected to real-time quantitative PCR.
To be accurate, the assessment must take into account the number of genomes present. The latter will be appreciated by a PCR conducted in parallel with a control gene, 36B4, encoding a ribosomal phosphoprotein with two primers (oligonucleotides) specific for this gene. The Ct obtained in this PCR will be converted into a number of genomes using a standard range made from an oligonucleotide of 75 bases, representing the amplicon obtained with primers specific to 36B4.
Therefore is obtained for each total DNA extracts from a given culture, an average length of telomere per genome.
Principle: Normal human dermal fibroblasts are grown on several cell passages, in contact or not with the GGP until a strong slowdown and little or not proliferative cells. At this stage, cultures are stopped, DNA extracted and the average telomere length measured for each culture.

human dermal fibroblasts [3] = experiment: Senescence associated β-galactosidase activity in fibroblasts after oxidising stress (FDG fluorimetry); format: cell-based; conditions: for β-galactosidase relative activity: after oxidising stress, n = 4
Description: Principle: Proliferative human dermal fibroblasts were contacted or not with the GGP for 72 hours in a growth medium. After this first incubation, the cells were subjected for 5 days to an oxidative stress daily, one hour each, in a basic medium, common to all cultures. This stress is known to create a SIPS and to induce a strong increase in β-galactosidase activity in the stressed culture compared to an unstressed culture. Between two stress cells are returned to the growth medium with or without the substance tested. After the fifth stress, β-galactosidase activity is evaluated.
Evaluation of β-galactosidase activity is done after fixing the layers. They are put in contact with a substrate of β-galactosidase nonfluorescent FDG (fluorescein di-β-galactopyranoside), which will release a fluorescent compound upon hydrolysis by β-galactosidase. The emitted fluorescence is quantified in a fluorometer. It will increase with the amount of senescent cells present in culture. The relative activity of β-galactosidase thus found is 2974+/−957 UFA/million cells in a proliferative culture and increases by a factor 5 (p<0.01) in a culture little to not proliferative.

β-galactosidase = experiment: Cell-free β-galactosidase inhibition check; format: biochemical; conditions: cell-free system
decorin = experiment: Decorin biosynthesis in fibroblast culture (ELISA); format: cell-based, human; conditions: for Decorin: 3 days, n = 5
Description: Principle: Normal human fibroblasts were brought to confluence, then contacted or not with GGP at 3, 5 or 7 ppm for 3 days. After this incubation, decorin content was assayed by ELISA in cell homogenates, and then divided by the number of cells.

human melanocytes = experiment: Melanin content of human melanocytes; format: cell-based; conditions: for Melanin content: 5 days, n = 4
Description: Principle: Human melanocytes are seeded and placed in contact with the GGP for 5 days. After incubation, the residual tyrosinase activity and total melanin content were measured in cell homogenates, and then divided by the number of cells (melanin) or to the protein amount (tyrosinase).

CC(C)=CCC/C(C)=C/CC/C(C)=C/CC/C(C)=C/CCC(C)O (stereo not drawn) [GGP, 6,10,14,18-tetramethylnonadeca-5,9,13,17-tetraen-2-ol]
Endogen peroxides (fibroblasts (FHN); SIPS fibroblasts subjected to a second oxidant stress): 161 +/− 14 UFA/million of cells
% Change/Control of endogen peroxides (fibroblasts (FHN); after SIPS, not stressed again): −40%; p < 0.01
Endogen peroxides (fibroblasts (FHN); after SIPS, not stressed again): 61.2 +/− 2.6 UFA/million of cells
Change (%) of ATP vs after-stress control (human dermal fibroblasts [1]; 5 ppm): +76%; p <
ATP (human dermal fibroblasts [1]; 5 ppm): 311 +/− 80 nM/0.1 μg protein
Change (%) of ATP vs after-stress control (human dermal fibroblasts [1]; 7 ppm): +460%; p <
ATP (human dermal fibroblasts [1]; 7 ppm): 988 +/− 38 nM/0.1 μg protein
Mean telomere length ([2]; presenescent cells, n = 3): 8.35 +/− 0.75 kb/genome
protection against natural telomere erosion (length vs control) ([2]; vs presenescent control): +1.45 kb →
Telomere erosion due to aging ([2]; vs proliferative cells): −2.31 kb; nsd kb/genome
Change with regard to control (β-galactosidase) (human dermal fibroblasts [3]; 3 ppm): −35%; p = 0.05
β-galactosidase relative activity (human dermal fibroblasts [3]; 3 ppm): 3702 +/− 992 FAU/10^6 cells
Change with regard to control (β-galactosidase) (human dermal fibroblasts [3]; 5 ppm): −51%; p < 0.02
β-galactosidase relative activity (human dermal fibroblasts [3]; 5 ppm): 2789 +/− 803 FAU/10^6 cells
inhibition of β-galactosidase (β-galactosidase): not an inhibitor of β-galactosidase
Change (%) of decorin vs control (decorin; 3 ppm): +15%; p < 0.03
Decorin (decorin; 3 ppm): 47578 +/− 3587 pg/10^6 cell
Change (%) of decorin vs control (decorin; 5 ppm): +32%; p < 0.01
Decorin (decorin; 5 ppm): 54419 +/− 4697 pg/10^6 cell
Change (%) of decorin vs control (decorin; 7 ppm): +41%; p < 0.01
Decorin (decorin; 7 ppm): 58168 +/− 5912 pg/10^6 cell
Change (%) of melanin content vs control (human melanocytes; 1 ppm): −4%; nsd
Melanin content (human melanocytes; 1 ppm): 46.6 +/− 2.4 μg/mL/10^6 cell
Change (%) of melanin content vs control (human melanocytes; 3 ppm): −36%; p < 0.01
Melanin content (human melanocytes; 3 ppm): 31.3 +/− 1.4 μg/mL/10^6 cell
Change (%) of melanin content vs control (human melanocytes; 5 ppm): −59%; p < 0.01
Melanin content (human melanocytes; 5 ppm): 20.2 +/− 1.3 μg/mL/10^6 cell
